Assay results as given in US20150374680A1, “POCHOXIME CONJUGATES USEFUL FOR THE TREATMENT OF HSP90 RELATED PATHOLOGIES” (UNIVERSITE DE STRASBOURG, priority 2010, published 2015).

Assays:
[1] = tested on: HER2+BT474 breast carcinoma cells; experiment: Proliferation assay in BT474 (ATPlite); assay type: cell-based; conditions: Homo sapiens, BT-474, 72 hours, average of three independent experiments
Description: (§1) The compounds were dissolved in 100% DMSO to make 10 mM stock solutions. HER2+BT474 breast carcinoma cells were cultured in DMEM/F12 media, supplemented with 10% FBS. Log-phase growing BT474 cells were seeded in 96 well plates at 1.5×10E4 per well. At this cell density, BT474 is expected to reach confluency about 70-80% in 3 days. Different dilutions of compounds or vehicle in 200 μl (concentration range 0.004-10 μM) were added to the cells and incubated for 72 hours. Upon completion of the incubation, media were gently removed by suction and 100 μl of ATPlite solution (Perkin Elmer) was added in each well. Viable cells were measured by detecting luminescence generated from reaction of ATPlite solution and ATP in the cells using a 96-well microplate luminescence reader. Relative luminescence light unit is correlated to the amount of ATP in viable cells. The assays were performed in duplicates. IC50 was calculated using XLfit. The IC50 shown in Table 4 below is the average IC50 from three independent experiments.

HCC1569 = experiment: Proliferation assay in HCC1569; assay type: cell-based; conditions: Homo sapiens, HCC1569, Breast (Her2+; Her2i res)
Description: as §1
(§2) Additional proliferation assays were performed for certain exemplified compounds using the methods similar to the one described above in multiple cancer cell lines.

H1975 = experiment: Proliferation assay in H1975; assay type: cell-based; conditions: Homo sapiens, NCI-H1975, H1975, Lung (EGFR mut)
Description: as §1, §2

NCI-H2228 = experiment: Proliferation assay in NCI-H2228; assay type: cell-based; conditions: Homo sapiens, NCI-H2228, Lung (EML4-ALK+)
Description: as §1, §2

H23 = experiment: Proliferation assay in H23; assay type: cell-based; conditions: Homo sapiens, NCI-H23, H23, Lung
Description: as §1, §2

A549 = experiment: Proliferation assay in A549; assay type: cell-based; conditions: Homo sapiens, A549, Lung
Description: as §1, §2

H460 = experiment: Proliferation assay in H460; assay type: cell-based; conditions: Homo sapiens, NCI-H460, H460, Lung
Description: as §1, §2

N87 = experiment: Proliferation assay in N87; assay type: cell-based; conditions: N87, Gastric (Her2+)
Description: as §1, §2

SKOV-3 = experiment: Proliferation assay in SKOV-3; assay type: cell-based; conditions: Homo sapiens, SK-OV-3, SKOV-3, Ovarian (Her2+)
Description: as §1, §2

A498 = experiment: Proliferation assay in A498; assay type: cell-based; conditions: Homo sapiens, A498, Renal (VHL mut)
Description: as §1, §2

human HSP90α = target: T1, human HSP90α (Homo sapiens, UniProt P07900); experiment: biochemical; assay type: binding
T1 construct: purchased Stressgen SPP-776F

Her-2 in SkBr3 cells = experiment: Her-2 depletion in SkBr3 cells (pharmacodynamic marker of cellular efficacy); assay type: cell-based; conditions: Homo sapiens, SK-BR-3; SkBr3 cells treated with the inhibitor overnight; read-out: PD (μM), pharmacodynamic EC50, Her-2 depletion
Description: FIG. 2. Cellular efficacy of pochoximes A1B5C1D1 (IC50). Depletion of Her-2 in SkBr3 cells were treated treated with the inhibitor for 18 h. […]

[2] = tested on: HSP90 client protein in SKBR3 cell lines; conditions: earlier work of the inventors; cited from earlier work

Molecule	EC50 (human HSP90α) [nM]	EC50 (Her-2 in SkBr3 cells) [µM]	further results
C[C@@H]1C/C=C/[C@@H](O)C/C=C/C(=N\OCC(=O)N2CCCCC2)Cc2cc(O)cc(O)c2C(=O)O1 [As-10a(6-S)-Z]			IC50 [1]: 0.026 µM; IC50 (HCC1569): 100 nM; IC50 (H1975): 35 nM; IC50 (NCI-H2228): 77 nM; IC50 (H23): 28 nM; IC50 (A549): 22 nM; IC50 (H460): 15 nM; IC50 (N87): 11 nM; IC50 (SKOV-3): 25 nM; IC50 (A498): 24 nM
C[C@@H]1C/C=C/[C@H](NC(=O)CS[C@@H]2OC(CO)[C@@H](O)C(O)C2O)C/C=C/C(=N/OCC(=O)N2CCCCC2)Cc2cc(O)cc(O)c2C(=O)O1 (some centres unmarked) [Compound 11E]			IC50 [1]: 4.76 µM
C[C@@H]1C/C=C/[C@@H](N)C/C=C/C(=N/OCC(=O)N2CCCCC2)Cc2cc(O)cc(O)c2C(=O)O1 [Compound 12E]			IC50 [1]: 0.03 µM
C[C@@H]1C/C=C/[C@@H](NC(=O)CS[C@@H]2OC(CO)[C@@H](O)C(O)C2O)C/C=C/C(=N/OCC(=O)N2CCCCC2)Cc2cc(O)cc(O)c2C(=O)O1 (some centres unmarked) [Compound 5E]			IC50 [1]: 7.84 µM
CC1CCCC(C)N1C(=O)CON=C1C=CCCC=CCCOC(=O)c2c(O)cc(O)cc2C1 (centres unmarked) [Compound A1B1C4D6]	238	< 5	
O=C(CON=C1C=CCCC=CCCOC(=O)c2c(O)cc(O)cc2C1)NCc1ccccc1 [Compound A1B1C4D22]	57	≤ 1	
CCCC1CC=CCCC=CC(=NOCC(=O)N2CCCCC2)Cc2cc(O)cc(O)c2C(=O)O1 (centres unmarked) [Compound A1B1C2D1]	588	> 10	
CCCC1CC=CCCC(C)=CC(=NOCC(=O)N2CCCCC2)Cc2cc(O)cc(O)c2C(=O)O1 (centres unmarked) [Compound A1B3C2D1]	196	≤ 1	
CC1C=CCC(C)OC(=O)c2c(O)cc(O)c(Cl)c2CC(=NOCC(=O)N2CCCCC2)C=CC1 (centres unmarked) [Compound A2B4C1D1]	154	≤ 1	
CC1C=CCCCOC(=O)c2c(O)cc(O)c(Cl)c2CC(=NOCC(=O)N2CCCCC2)C=CC1 (centres unmarked) [Compound A2B4C5D1]	1720	> 10	
CCCC1CC=CCCC(C)=CC(=NOCC(=O)N(CC)CC)Cc2cc(O)cc(O)c2C(=O)O1 (centres unmarked) [Compound A1B3C2D18]	4660	> 10	
C[C@@H]1C/C=C/[C@@H](O)C/C=C/C(=N/OCC(=O)N2CCCCC2)Cc2cc(O)cc(O)c2C(=O)O1 [As-10a(6-S)-E]			IC50 [1]: 0.058 µM; IC50 (HCC1569): 377 nM; IC50 (H1975): 73 nM; IC50 (NCI-H2228): 241 nM; IC50 (H23): 88 nM; IC50 (A549): 90 nM; IC50 (H460): 45 nM; IC50 (N87): 73 nM; IC50 (SKOV-3): 67 nM; IC50 (A498): 99 nM
O=C1OCCC=CCCC=CC(=NOCC(=O)N2CC=CCC2)Cc2cc(O)cc(O)c21 [Compound A1B1C4D9]	22	≤ 0.5	
C[C@@H]1C/C=C/[C@@H](O)C/C=C/C(=N\OCC(=O)N2CCCCC2)Cc2c(Cl)c(O)cc(O)c2C(=O)O1 [As-10b(6-S)-Z]			IC50 [1]: 0.824 µM
O=C1OCCC=CCCC=CC(=NOCC(=O)N2CCCC2)Cc2cc(O)cc(O)c21 [Compound A1B1C4D17]	219	≤ 0.5	
O=C1OCCC=CCCC=CC(=NOCC(=O)N2CCC(Cc3ccccc3)CC2)Cc2cc(O)cc(O)c21 [Compound A1B1C4D8]	5760	> 10	
CC1CC=CCCC=CC(=NOCC(=O)N2CCCCC2)Cc2cc(O)cc(O)c2C(=O)O1 (centres unmarked) [Compound A1B1C1D1]	34	≤ 5	
CC(C)N(C(=O)CON=C1C=CCCC=CCCOC(=O)c2c(O)cc(O)cc2C1)C(C)C [Compound A1B1C4D20]	162	≤ 1	
CCCC1CC=CCCC=CC(=NOCC(=O)N2CCCCC2)Cc2c(Cl)c(O)cc(O)c2C(=O)O1 (centres unmarked) [Compound A2B1C2D1]	96	≤ 5	
pochoxime B			Concentration inducing client protein degradation [2]: low nM
pochoxime C			Concentration inducing client protein degradation [2]: low nM
CC1=CC(=NOCC(=O)N2CCCCC2)Cc2cc(O)cc(O)c2C(=O)OCCC=CCC1 [Compound A1B3C4D1]	46	≤ 0.5	
CC(=O)N[C@H]1/C=C/C[C@@H](C)OC(=O)c2c(O)cc(O)cc2CC(=N/OCC(=O)N2CCCCC2)/C=C/C1 [Compound 14Z]			IC50 [1]: 0.27 µM

Molecule	EC50 (human HSP90α) [nM]	EC50 (Her-2 in SkBr3 cells) [µM]	further results
O=C1OCCC=CCCC=CC(=NOCC(=O)N2CC=CC2)Cc2cc(O)cc(O)c21 [Compound A1B1C4D15]	128	≤ 1	
C[C@@H]1C/C=C/[C@@H](NC(=O)CS[C@@H]2OC(CO)[C@@H](O)C(O)C2O)C/C=C/C(=N\OCC(=O)N2CCCCC2)Cc2cc(O)cc(O)c2C(=O)O1 (some centres unmarked) [Compound 5Z]			IC50 [1]: > 10 µM
CCCN(CCC)C(=O)CON=C1C=CCCC=CCCOC(=O)c2c(O)cc(O)cc2C1 [Compound A1B1C4D25]	116	≤ 1	
CC1CCCN(C(=O)CON=C2C=CCCC=CCCOC(=O)c3c(O)cc(O)cc3C2)C1 (centres unmarked) [Compound A1B1C4D3]	60	≤ 0.1	
CC1CN(C(=O)CON=C2C=CCCC=CCCOC(=O)c3c(O)cc(O)cc3C2)CC(C)O1 (centres unmarked) [Compound A1B1C4D14]	337	≤ 5	
O=C1NCCC=CCCC=CC(=NOCC(=O)N2CCCCC2)Cc2c(Cl)c(O)cc(O)c21 [Compound A2B1C3D1]	198	≤ 1	
O=C1OCCC=CCCC=CC(=NOCC(=O)N2CCSCC2)Cc2cc(O)cc(O)c21 [Compound A1B1C4D11]	70	≤ 0.5	
O=C1OCCC=CCCC=CC(=NOCC(=O)N2CCC(c3ccccc3)CC2)Cc2cc(O)cc(O)c21 [Compound A1B1C4D7]	2240	> 10	
C[C@@H]1C/C=C/[C@H](N)C/C=C/C(=NOCC(=O)N2CCCCC2)Cc2cc(O)cc(O)c2C(=O)O1 [Compound 13]			IC50 [1]: 0.097 µM
O=C1OCCC=CCCC=CC(=NOCC(=O)N(Cc2ccccc2)Cc2ccccc2)Cc2cc(O)cc(O)c21 [Compound A1B1C4D21]	2990	> 10	
CC(=O)N[C@H]1/C=C/C[C@@H](C)OC(=O)c2c(O)cc(O)cc2CC(=N\OCC(=O)N2CCCCC2)/C=C/C1 [Compound 14E]			IC50 [1]: 0.223 µM
CCN(CC)C(=O)CON=C1C=C(C)CCC=CCC(C)OC(=O)c2c(O)cc(O)cc2C1 (centres unmarked) [Compound A1B3C1D18]	200	≤ 1	
O=C(CON=C1C=CCCC=CCCOC(=O)c2c(O)cc(O)cc2C1)NC1CCCCC1 [Compound A1B1C4D24]	155	≤ 5	
CC1C=CC(C)N1C(=O)CON=C1C=CCCC=CCCOC(=O)c2c(O)cc(O)cc2C1 (centres unmarked) [Compound A1B1C4D16]	119	≤ 1	
CCC1CCCCN1C(=O)CON=C1C=CCCC=CCCOC(=O)c2c(O)cc(O)cc2C1 (centres unmarked) [Compound A1B1C4D5]	243	< 1	
C[C@@H]1C/C=C/[C@@H](N)C/C=C/C(=N\OCC(=O)N2CCCCC2)Cc2cc(O)cc(O)c2C(=O)O1 [Compound 12Z]			IC50 [1]: 0.038 µM
O=C1OCCC=CCCC=CC(=NOCC(=O)N2CCNCC2)Cc2cc(O)cc(O)c21 [Compound A1B1C4D12]	640	≤ 5	
C=CC1=CCCC=CC(=NOCC(=O)N2CCCCC2)Cc2c(Cl)c(O)cc(O)c2C(=O)OCC1 [Compound A2B1C8D1]	432	≤ 1	
C[C@@H]1C/C=C/[C@H](NC(=O)CS[C@@H]2OC(CO)[C@@H](O)C(O)C2O)C/C=C/C(=N\OCC(=O)N2CCCCC2)Cc2cc(O)cc(O)c2C(=O)O1 (some centres unmarked) [Compound 11Z]			IC50 [1]: > 10 µM
C[C@@H]1C/C=C/[C@@H](O)C/C=C/C(=N/OCC(=O)N2CCCCC2)Cc2c(Cl)c(O)cc(O)c2C(=O)O1 [As-10b(6-S)-E]			IC50 [1]: 0.027 µM; IC50 (HCC1569): 187 nM; IC50 (H1975): 33 nM; IC50 (NCI-H2228): 281 nM; IC50 (H23): 36 nM; IC50 (A549): 126 nM; IC50 (N87): 13 nM; IC50 (SKOV-3): 45 nM; IC50 (A498): 37 nM
CC(C)CN(CC(C)C)C(=O)CON=C1C=CCCC=CCCOC(=O)c2c(O)cc(O)cc2C1 [Compound A1B1C4D19]	94	≤ 5	
CC1C=CCCOC(=O)c2c(O)cc(O)cc2CC(=NOCC(=O)N2CCCCC2)C=CC1 (centres unmarked) [Compound A1B4C4D1]	21	≤ 0.5	
